# Several values for one entry are separate records, joined by “and”; a condition that tells them apart may be missing. Identical values can stand only once. Like-named read-outs stand apart in the source and are kept apart here.
# Key:
# [1] = CPP/CAS9 and CPP/CAS9:gRNA particle size, polydispersity, zeta potential (Zetasizer 4); format: physicochemical
# Description: The CPP/CAS9 and CPP/CAS9/sgRNA particles were further characterized; the mean size, polydispersity and zeta potential were measured with Zetasizer 4 apparatus (Malvern Ltd). […] The mean size and the polydispersity of the CCP/CAS9 and CCP/CAS9:gRNA complexes were determined at 25° C. for 3 min per measurement and zeta potential was measured with Zetasizer 4 apparatus (Malvern Ltd).
# [2] = tested on: EGFP reporter gene in EGFP-U2OS, EGFP-HEK, EGFP-JURKAT cells; assay: EGFP reporter gene disruption from CPP delivery of CAS9:sgRNA (flow cytometry); format: cell-based, human; settings: for decrease in EGFP expression: CAS9:gRNA 50 nM, CPP:cargo 20:1;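 as to all read-outs here: cells carrying one integrated EGFP reporter received peptide-complexed CAS9 preloaded 1:1 with EGFP sgRNA, cultured 72 h, then EGFP level read by flow cytometry, lipofectamine 2000 and RNAiMAX as positive controls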
# Description: Efficacy of CPP-mediated delivery was quantified using a well-established CAS9-induced gene disruption method (Fu et al, 2013, supra), by targeting a specific site in the exogenous EGFP gene reporter in three human cell lines expressing EGFP (GFP-U2OS, EGFP-HEK, EGFP-JURKAT).
# Stock solutions of amphipathic peptides were prepared at 1 mg/mL in distilled water and sonicated for 10 min. CAS9 protein was preloaded with purified EGFP sgRNA at a molar ratio of 1:1 and incubated for 10 min prior to forming complexes with the peptides. Preloaded CAS9/gRNA complexes (10 nM, 25 nM, and 50 nM) were mixed with CPPs at 5:1, 10:1 and 20:1 molar ratios of CPP to cargo and incubated for 30 min at 37° C. prior to cell transfection.
# Cell line containing a single integrated EGFP reporter gene (GFP-U2OS, EGFP-HEK and EGFP-JURKAT) were cultured in Dulbecco's Modified Eagle's Medium (DMEM), supplemented with 2 mM glutamine, 1% antibiotics (streptomycin 10,000 μg/mL, penicillin, 10,000 IU/mL) and 10% (w/v) foetal calf serum (FCS) at 37° C. in a humidified atmosphere containing 5% CO2. A total of 150,000 cells seeded in a 35 mm dish the day prior to transfection were grown to 50-60% confluence and overlaid with 200 μl of preformed complexes, incubated for 3-5 min, then 400 μl of DMEM was added. After 30 min incubation at 37° C., 1 mL of fresh DMEM containing 16% FCS was added to reach a final FCS concentration of 10%, without removing the overlay of CPP/CAS9-gRNA complexes. Cells were returned to the incubator for 72 hours.
# CAS9-induced double-strand break formation was analyzed using flow cytometry by monitoring level of EGFP expression. […] Both lipofectamine 2000 and RNAiMAX delivery methods were used as positive controls.
# [3] = tested on: endogenous EMX1 gene in U2OS, JURKAT and K562 cells; assay: EMX1 gene editing from CPP delivery of CAS9/gRNA (T7E1 assay); format: cell-based, human
# Description: RNAiMAX delivery was used as a positive control as it was previously reported to show better results than Lipofectamine 2000 (Zuris et al., 2015, supra). […] Cells were returned to the incubator for 72 hours.
# [4] = tested on: endogenous EMX1, AAVS and HPRT genes in U2OS and Human (H9) embryonic stem cells; assay: Delivery of multiple RGEN:gRNA complexes: EMX1, AAVS, HPRT editing in U2OS and H9 ES cells (T7E1); format: cell-based
# Description: RNAiMAX delivery method was used as a positive control.
# U2OS cells were treated as described previously. H9 embryonic stem cells were cultured in Dulbecco's modified Eagle's medium with 4 mM L-glutamine adjusted to contain 1.5 g/L sodium bicarbonate and 4.5 g/L glucose and supplemented with 0.1 mM 2-mercaptoethanol, 85%; and 15% ES-Cell Qualified fetal bovine serum. […] CAS9-induced double-strand break formation followed by repair through NHEJ was analyzed 72 hr after transfection by T7E1 assay and quantified using Fragment Analyzer System. The deletion (indel) frequencies in EMX1, AAVS and HPRT genes were quantified using T7E1 assay. Data for on-target mutations induced by RGEN:gRNA are reported as an average of 3 separate experiments.
# [5] = tested on: hPD1 gene in human T cells; assay: Simultaneous delivery of CAR plasmid and CAS9/gRNA: hPD1 editing (T7E1); format: cell-based; settings: for mean indel frequency: two donors
# Description: Cells were incubated for 5 min, then 300 μl of serum free RPMI-1640 medium was added. After 30 min, 1.2 mL of full medium was added and serum level was adjusted to 10%. As control, CAS9 loaded with gRNA targeting GFP was used. For comparison with electroporation methods, cells were transfected with the anti-CD-19 CAR plasmid (5 μg) and gRNA/CAS9 (5 μg/10 μg) using Nucleofector 2b (Lonza, Germany) with the Amaxa Human T cells Nucleofector Kit, VPA-1002 (Lonza, Germany).
# On day 5, the level of transduced and untransduced cells was analyzed, and cells were transferred to fresh T cell expansion medium. The cultures were analyzed for viability and anti-CD19 CAR expression by flow cytometry. The expression of the anti-CD19 CAR in the T cells was evaluated by flow cytometry using a Protein L assay. […] 7-AAD (Sigma) was used to determine viability. CAS9-induced double-strand break followed by repair through NHEJ system was analyzed by either the T7E1 assay or using the Genome Cleavage Detection kit (GCD Thermo Fisher) and quantified using Fragment Analyzer System. The indel frequency in the target gene was quantified using the T7E1 assay. The cultures were expanded and analyzed for viability, anti-CD19 expression and PD I level every 10 days. T cell expansion medium contained AIM V medium, supplemented with 5% heat-inactivated human AB Serum, 1% Gluta-Max, and 300 IU/mL IL-2.
# [6] = tested on: endogenous EMX1 and HPRT genes in primary human cardiac fibroblasts and primary human hepatocytes; assay: EMX1 and HPRT editing in primary human cells (T7E1 assay); format: cell-based; settings: for mean indel frequencies: both genes
# Description: ADGN-100 peptides were also evaluated for cellular delivery of multiple RGEN:gRNA complexes targeting endogenous EMX1 and HPRT genes in primary human cardiac fibroblasts and primary human hepatocytes. The CAS9/gRNA complexes contained either CAS9 protein or mRNA encoding the CAS9 protein and a gRNA targeting either EMX1 or HPRT. Human primary cardiac fibroblasts and human primary hepatocytes were freshly obtained and grown in flasks pre-coated with a gelatin-based coating solution and incubated in Culture Complete Growth Medium for 3 days before expansion and treatment. […] Non-Homologous End Joining (NHEJ) was analyzed 72 hours after transfection by the T7E1 assay and compared to delivery using RNAiMAX lipid methods. The toxicity was analyzed for all conditions using the MTT assay.
# CAS9 protein was preloaded with purified gRNA-GFP at a molar ratio of 1:1 and incubated for 10 min prior to forming complexes with ADGN peptides.
# The following protocol was used for both cell types. Cells were cultured to about 70% confluence at the time of transfection. Cells were maintained in high glucose DMEM media with 10% serum. Before transfection, cells were washed with DMEM twice and resuspended in 0.2 ml of complex solution (16 μl complex+184 μl OPTiMEM) mixed gently and incubated for 10 min at 37° C. 0.8 mL of fresh OPTiMEM (high glucose) was added and cells were incubated for 20 min at 37° C. […] Cells were returned to the incubator at 37° C. and assayed at 72 hours post transfection.
# As a positive control, complexes were delivered using RNAiMAX (Invitrogen Thermo Fisher). CAS9-induced double-strand break formation followed by repair throughout the non-homologous end joining (NHEJ) system was analyzed at 72 hours by the T7E1 assay and quantified using a Fragment Analyzer System. The indel frequencies reported for the EMX1 and HPRT genes are an average of 3 separate experiments. Cytotoxicity was analyzed using the MTT assay.
# [7] = tested on: primary human fibroblasts and primary human hepatocytes; assay: Toxicity of ADGN-100a/CAS9/gRNA in primary cells (MTT assay); format: cell-based; settings: both primary cell types
# Description: Cytotoxic response was measured 24 hours later by colorimetric MTT assay (Sigma, Germany). For MTT assay, cell culture medium was removed and replaced with PBS containing 2.5 mg/ml of MTT for 4 hours.
# [8] = tested on: endogenous EMX1 gene in U2OS, HEPG2 cells and primary human fibroblasts; assay: EMX1 editing from CPP delivery of CAS9-expressing plasmid and gRNA (T7E1); format: cell-based; settings: the three cell types
# Description: EMX1-targeting gRNAs were prepared as described above. CPP/plasmid/gRNA complexes were prepared by mixing 0.5 μg of a CAS9-expressing plasmid (Addgene MLM3639-Plasmid #42252) and 5 μg gRNA with CPP at a 20:1 molar ratio of CPP to nucleic acid (plasmid+gRNA) and incubating for 30 min at 37° C. prior to cell transfection. Suspension and adherent cells were transfected according to the protocols described in Example 13a. Lipofectamine 2000- and RNAiMAX-mediated delivery methods (Invitrogen Thermo Fisher France) were used as controls. EMX1 gene editing was analyzed at day 3 and day 6 by T7E1 assay and quantified using a Fragment Analyzer System.
# Swiss mice = assay: In vivo delivery of CAS9 mRNA by three CPPs: CAS9 expression in tissues (ELISA); design: species or system mouse
# Description: Free CAS9 mRNA in physiological buffer was injected as a control.
# At day 3, day 6, and day 10 following injection, animals were sacrificed and tissues including lung, liver, brain, kidney, heart, spleen, blood, pancreas, muscle, bone marrow, and intestine were collected. Tissues were homogenized and CAS9 protein levels in protein extracts were analyzed by ELISA using an antibody against CRISPR/Cas9 (SBI clone 7A9).
# PCSK9 = assay: In vivo CAS9 mRNA/gRNA targeting PCSK9: serum PCSK9 (ELISA); design: species or system mouse
# Description: Polyadenylated and capped CAS9 mRNA was obtained from ThermoFisher, and gRNA (5 μg) targeting PCSK9 Exon 1 was obtained from Eurogentec. […] Free CAS9 mRNA/gRNA was injected as a control.
# Blood samples were collected by saphenous vein bleeds at multiple time points (day 3, 6, 10, and 21), collecting no more than 100 μl or 10% of total blood volume per week. Serum levels of PCSK9 were determined by ELISA using the Mouse Proprotein Convertase 9/PCSK9 Quantikine ELISA Kit (MPC-900, R&DSystems).
# [9] = Particle size, polydispersity and zeta potential with different cargoes (Zetasizer NANO ZS P); format: physicochemical; settings: 20:1
# Description: The CPP/CAS9-protein, CPP/CAS9-protein/sgRNA, CPP/CAS9-mRNA, CPP/CAS-mRNA/sgRNA particles were characterized; the mean size, polydispersity, and zeta potential were measured with a Zetasizer NANO ZS P apparatus (Malvern Ltd).
# The mean size and the polydispersity of the CCP/cargo complexes were determined at 25° C. for 5 min per measurement and zeta potential was measured with a Zetasizer NANO ZS P apparatus (Malvern Ltd).
# U2OS cells = settings: CAS9 mRNA 0.2 μg and 0.5 μg; 20:1; 72 h
# Description: U2OS cells were cultured in Dulbecco's Modified Eagle's Medium (DMEM), supplemented with 2 mM glutamine, 1% antibiotics (streptomycin 10,000 μg/mL, penicillin, 10,000 IU/mL) and 10% (w/v) foetal calf serum (FCS), at 37° C. in a humidified atmosphere containing 5% CO2. […] After 20 min incubation at 37° C., 1 mL of fresh DMEM containing 16% FCS was added in order to reach a final FCS concentration of 10%, without removing the overlay of complexes. Cells were returned to the incubator for 72 hours. CAS9 expression level was quantified by western blot on protein extract using antibody against CRISPR/Cas9 (Diagenode cat. No. C15200223).
# [10] = tested on: exogenous eGFP gene reporter in eGFP-U2OS cell line; settings: 72 h
# Description: Both lipofectamine 2000 and RNAiMAX delivery methods were included as controls. eGFP-U2OS cells were cultured in Dulbecco's Modified Eagle's Medium (DMEM), supplemented with 2 mM glutamine, 1% antibiotics (streptomycin 10,000 μg/mL, penicillin, 10,000 IU/mL) and 10% (w/v) foetal calf serum (FCS), at 37° C. in a humidified atmosphere containing 5% CO2. A total of 150,000 cells seeded in a 35 mm dish the day prior to transfection were grown to 50-60% confluence and overlaid with 200 μl of preformed complexes, incubated for 5 min, then 400 μl of DMEM was added. After 20 min incubation at 37° C., 1 mL of fresh DMEM containing 16% FCS was added in order to reach a final FCS concentration of 10%, without removing the overlay of complexes. Cells were returned to the incubator for 72 hours.
# [11] = tested on: Luciferase reporter gene in the liver; settings: free ADGN-100a peptide
# Description: At 72 hours post injection, animals were sacrificed and the following tissues were collected: liver, lung, kidney, spleen, and blood. Luciferase was quantified by fluorescence in the liver. Tissues were homogenized and CAS9 expression was analyzed by ELISA using Cas9 monoclonal antibody (SBI clone 7A9).
smiles,measurement,setting,value
CC(C)C[C@H](NC(=O)[C@H](CCCNC(=N)N)NC(=O)[C@H](Cc1c[nH]c2ccccc12)NC(=O)[C@H](CCCNC(=N)N)NC(=O)[C@H](Cc1c[nH]c2ccccc12)NC(=O)CNC(=O)[C@H](C)NC(=O)[C@H](CO)NC(=O)[C@H](CCCNC(=N)N)NC(=O)[C@H](Cc1c[nH]c2ccccc12)NC(=O)[C@H](CCCCN)NC(=O)CCN)C(=O)N[C@@H](Cc1c[nH]c2ccccc12)C(=O)N[C@@H](CCCNC(=N)N)C(=O)N[C@H](C(=O)N[C@@H](CCCNC(=N)N)C(=O)N[C@@H](CO)C(=O)N[C@@H](Cc1c[nH]c2ccccc12)C(=O)N[C@@H](CO)C(=O)N[C@@H](CCCNC(=N)N)C(=O)O)C(C)C [ADGN-100a],PI,"[1]; Cas9:gRNA, molar ratio 10/1",0.27 ± 0.1
same,Size,"[1]; Cas9:gRNA, molar ratio 10/1",91 ± 5 nm
same,zeta,"[1]; Cas9:gRNA, molar ratio 10/1",5.3±1.0 MV and 5.3 ± 0.7 MV
same,PI,"[1]; Cas9:gRNA, molar ratio 20/1",0.28 ± 0.1
same,Size,"[1]; Cas9:gRNA, molar ratio 20/1",87 ± 6 nm
same,zeta,"[1]; Cas9:gRNA, molar ratio 20/1",4.8±0.3 MV
same,Pt,"[1]; Cas9, molar ratio 10/1",0.25 ± 0.1
same,zeta,"[1]; Cas9, molar ratio 10/1",6.0±0.8 mV
same,Size,"[1]; Cas9, molar ratio 10/1, 0.9% NaCl",82 ± 5 nm
same,Pt,"[1]; Cas9, molar ratio 20/1",0.21 ± 0.1
same,Size,"[1]; Cas9, molar ratio 20/1",78 ± 7 nm
same,zeta,"[1]; Cas9, molar ratio 20/1",7.2±1 mV
same,formation of stable nanoparticles,"[1]; with CAS9 and CAS9:gRNA complex, molar ratio 10:1 or 20:1",able to form stable nanoparticles
same,Mean diameter,"[1]; with CAS9 and CAS9:gRNA, molar ratio 10:1 or 20:1",~80 nm
same,reduction of EGFP-positive cells,[2]; EGFP-JURKAT,81%
same,reduction of number of EGFP-expressing cells,"[2]; HEK, 1 nM CAS9:gRNA",62%
same,decrease in EGFP expression,[2]; HEK,86%
same,reduction of EGFP-expressing cells / loss of EGFP expression,"[2]; JURKAT, 1 nM CAS9:gRNA",51%
same,reduction of number of EGFP-expressing cells,"[2]; U2OS, 1 nM CAS9:gRNA",57%
same,decrease in EGFP expression,[2]; U2OS,87%
same,Mean indel Frequency ± S.E.M,"[3]; JURICAT, CAS9/sgRNA 25 nM",65% and 65 ± 5%
same,Mean indel Frequency ± S.E.M,"[3]; JURKAT, CAS9/sgRNA 50 nM",68 ± 6%
same,Mean indel Frequency ± S.E.M,"[3]; K562, CAS9/sgRNA 25 nM",71% and 71 ± 8%
same,Mean indel Frequency ± S.E.M,"[3]; K562, CAS9/sgRNA 50 nM",74 ± 4%
same,Mean indel Frequency ± S.E.M,"[3]; U2OS, CAS9/sgRNA 25 nM, 20:1",67% and 67 ± 5%
same,Mean indel Frequency ± S.E.M,"[3]; U2OS, CAS9/sgRNA 50 nM",72 ± 8%
same,Mean indel Frequency ± S.E.M,"[4]; H9, AAVS",60 ± 5%
same,Mean indel Frequency ± S.E.M,"[4]; H9, EMX1",61 ± 6%
same,Mean indel Frequency ± S.E.M,"[4]; H9, HPRT",61 ± 5%
same,Mean indel Frequency ± S.E.M,"[4]; U2OS, AAVS",72 ± 4%
same,Mean indel Frequency ± S.E.M,"[4]; U2OS, EMX1, 20 nM each complex",78 ± 7%
same,Mean indel Frequency ± S.E.M,"[4]; U2OS, HPRT",78 ± 6%
same,Mean indel Frequency ± s.e.m,"[5]; Donor 1, CAS9/sgRNA 2.5 μg/5 μg",44 ± 5%
same,Mean indel Frequency ± s.e.m,"[5]; Donor 1, CAS9/sgRNA 5 μg/10 μg",50 ± 3%
same,Mean indel Frequency ± s.e.m,"[5]; Donor 2, CAS9/sgRNA 2.5 μg/5 μg",42 ± 3%
same,Mean indel Frequency ± s.e.m,"[5]; Donor 2, CAS9/sgRNA 5 μg/10 μg",51 ± 8%
same,mean indel frequency,[5]; 2.5 μg/5 μg CAS9/gRNA,approximately 42%
same,mean indel frequency,[5]; 5 μg/10 μg CAS9/gRNA,approximately 50%
same,more potent than RNAiMAX,[6],3-4 folds
same,Mean indel Frequency ± S.E.M,"[6]; EMX1, Fibroblasts, 20 nM",65 ± 4%
same,Mean indel Frequency ± S.E.M,"[6]; EMX1, Fibroblasts, 50 nM",67 ± 5%
same,Mean indel Frequency ± S.E.M,"[6]; EMX1, Fibroblasts, CAS9/sgRNA 10 nM",61 ± 5%
same,Mean indel Frequency ± S.E.M,"[6]; EMX1, Hepatocytes, 10 nM",55 ± 6%
same,Mean indel Frequency ± S.E.M,"[6]; EMX1, Hepatocytes, 20 nM",58 ± 5%
same,Mean indel Frequency ± S.E.M,"[6]; EMX1, Hepatocytes, 50 nM",61 ± 5%
same,Mean indel Frequency ± S.E.M,"[6]; HPRT (printed HPR/HPRI), Fibroblasts, 10 nM",62 ± 5%
same,Mean indel Frequency ± S.E.M,"[6]; HPRT, Fibroblasts, 20 nM",68 ± 4%
same,Mean indel Frequency ± S.E.M,"[6]; HPRT, Fibroblasts, 50 nM",70 ± 5%
same,Mean indel Frequency ± S.E.M,"[6]; HPRT, Hepatocytes, 10 nM",54 ± 6%
same,Mean indel Frequency ± S.E.M,"[6]; HPRT, Hepatocytes, 20 nM",56 ± 5%
same,Mean indel Frequency ± S.E.M,"[6]; HPRT, Hepatocytes, 50 nM",57 ± 5%
same,mean indel frequencies,"[6]; primary fibroblasts, 20 nM",more than 60%
same,mean indel frequencies,"[6]; primary hepatocytes, 20 nM",> 55%
same,toxicity,[7],less than 10%
same,mean indel frequencies,[8],45-50%
same,CAS9 expression,"Swiss mice; day 10, liver",CAS9 expression was observed
same,ELISA signal for CAS9 protein expression,"Swiss mice; liver, day 3 and day 6, CAS9 mRNA 5 μg i.v., 20:1",greater than 20 times that of background
same,CAS9 protein expression,Swiss mice; other tissues examined,Little to no increase
same,decrease of serum levels of PSCK9,"PCSK9; day 1, CAS9 mRNA 5 μg/gRNA 5 μg single i.v.",51%
same,decrease of serum levels of PSCK9,PCSK9; day 3,62%
same,decrease of serum levels of PSCK9,PCSK9; day 6,69%
same,decrease of serum levels of PSCK9,PCSK9; day 10,65%
same,decrease of serum levels of PSCK9,PCSK9; day 14,65%
same,decrease of serum levels of PSCK9,PCSK9; day 20,60%
same,formation of stable nanoparticles,[9]; with CAS9-mRNA and CAS9-mRNA/gRNA complex,able to form stable nanoparticles
same,Mean diameter,[9]; with CAS9-mRNA and CAS9-mRNA/gRNA,about 75 nm
same,formation of stable nanoparticles,[9]; with CAS9-protein and CAS9-protein/gRNA complex,able to form stable nanoparticles
same,Mean diameter,[9]; with CAS9-protein and CAS9-protein/gRNA,about 100 nm
same,CAS9 protein expression,U2OS cells,dose-dependent expression of CAS9 protein
same,decrease in EGFP expression,[10]; CAS9 mRNA/gRNA (0.5 μg/5 μg),85%
same,decrease in EGFP expression,[10]; CAS9 protein/gRNA (2.5 μM/5 μM),87%
same,change in luciferase expression,[11],no change in luciferase expression

# — patent US20190211317A1, “PEPTIDES AND NANOPARTICLES FOR INTRACELLULAR DELIVERY OF GENOME-EDITING MOLECULES” (Aadigen, LLC, priority 2016, published 2019)
